Reference: patent publication US5157021A, “Insulin derivatives and pharmaceutical preparations containing these derivatives” (Novo Nordisk A/S, priority 1985, dated 1992)

System: guinea pigs
Test: Hypoglycemia (blood glucose) in guinea pigs after subcutaneous injection of the insulin preparation
Format: in vivo, guinea pig
Procedure: 25 ml of a medium containing 1.6% (w/v) of glycerol. 0.33% (w/v) of m-cresol, 1/75M of sodium phosphate, pH value 7.3, were prepared. The solution was sterilized by filtration. 1.5 mg of human insulin-B21-methyl ester, prepared as described in Example 1, were suspended in 1.0 ml of medium.
4.5 mg of human insulin-A17-methyl ester were dissolved in 2.7 ml of 0.015M phosphoric acid. 21 mg of sodium chloride and 4.1 μlitres of an aqueous solution of 152 mM zinc chloride were added. The solution was sterilized by filtration. The pH value of the solution was adjusted to 8.0 under aseptic conditions with a sterile aqueous solution of sodium hydroxide. The pH value of the solution was then readjusted to 7.3 with sterile hydrochloric acid, and rhombohedral crystals with a mean size of 10 um were formed with gentle stirring at 21° C. The volume was adjusted to 3 ml with sterile water.
Moreover, a sterile solution of 3 ml of 13.5 mM phosphoric acid in admixture with 21 mg of sodium chloride and 9 μlitres of m-cresol was prepared, and the pH value was adjusted to 7.3 with a sterile aqueous solution of sodium hydroxide. The two solutions were combined.
15 mg of human insulin-A4-gln, obtained as described in Example 5, was dissolved in 10 ml of a solution containing 13.5 mM phosphoric acid, 0.3% m-cresol and 1.6% glycerol. The solution was sterilized by filtration, and the pH value was adjusted to 9,0 with a sterile aqueous solution of sodium hydroxide. The pH value was readjusted to 8.2 with a sterile solution of hydrochloric acid, and human insulin-A4-gln crystallized as rhombohedral crystals with gentle stirring.

[1] = dosage 18 μg/kg, crystalline zinc preparation pH 7.3

Human insulin-A4-gln
protracted hypoglycemic effect compared with "Insulatard" at 0.5 IU/kg (subcutaneous injection of crystalline suspension at 0.5 IU/kg): nearly identical both in timing and amplitude

Human insulin-A17-methyl ester
biological activity indicated by area below the blood glucose curve, relative to human insulin [1]: nearly the same biological activity as human insulin
hypoglycemia [1]: strongly protracted hypoglycemia
protracted insulin action compared with "Insulatard" [1]: longer than the protracted action of the known injection preparation

Human insulin-B21-methyl ester
protracted insulin action compared with "Insulatard" (subcutaneous, zinc-free suspension 1.5 mg in 1.0 ml medium, pH 7.3): comparable to the hypoglycemia observed after injection of a standard protamin insulin preparation
